# Test: Human HepG2 cell viability assay in 384 well format
# Type: toxicity, cell-based
# Parameters: dose 125 nL, time 70.5 hour; concentration not given beside the values
# Conditions: HepG2 cells, read-out: Inhibition
row,SMILES,cytotoxicity at 70.5 h
1,Cc1occc1C(=O)N1CCOCC2(CCN(Cc3nccs3)C2)C1 (stereo not drawn),-6.13%
2,Cn1nc(C2CCCC2)c(-c2ccc3c(c2)OCO3)c1N,-8.03%
3,FC(F)Oc1ccc(NCc2nc(C3CC3)no2)c(OC(F)F)c1,1.35%
4,Cc1ncsc1CN1CC2(CCCC2)CC1=O,0.928%
5,COCCC1(CNC(=O)NCC2CN(C)CCN2C)CCC1 (stereo not drawn),-2.66%
6,COc1cc(-c2cnnc(NCCSC)n2)cc(OC)c1OC,-5.18%
7,CCOCC(O)CN1CCN(C(=O)Cc2ccc(C)nc2)CC1 (stereo not drawn),-0.471%
8,O=C(NCC1COC2(CCOCC2)O1)c1csc(-c2cccc(Cl)c2)n1 (stereo not drawn),-20.8%
9,COc1ccc(NC(=O)C2CC(=O)n3cnnc3S2)cc1 (stereo not drawn),2.23%
10,CC1CCN(CCNC(=O)c2sccc2C2CC2)CC1,-5.27%
11,c1sc(C2CCCCC2)nc1CN1CCn2c(nnc2C2CC2)C1,-3.37%
12,O=C(Cn1cccnc1=O)NC(Cc1cccs1)c1ccccn1 (stereo not drawn),-13.9%
13,Cc1cccc(CC(=O)N2CCOCC2c2c(C)n[nH]c2C)c1 (stereo not drawn),-18.3%
14,O=C1CC(c2ccc3ccccc3n2)c2c(n[nH]c2C2CCC2)N1 (stereo not drawn),19.5%
15,O=C(CN1CCCCCC1)NCc1cccnc1Oc1ccccc1,-2.72%
16,CN(C)S(=O)(=O)N1CCC(c2nnc(C(F)(F)F)o2)CC1,30.8%
17,Cc1cc(C(=O)N2CCc3nc(N4CCCC4)nc(C)c3CC2)c(C)o1,-7.18%
18,O=C(CCc1cc(O)no1)N1CCCC(OCc2cccnc2)C1 (stereo not drawn),-10.1%
19,COc1ccc(-c2cn(CCn3c(C)cc(C)nc3=O)nn2)cn1,-9.73%
20,CCC(Nc1cccc(OC)c1)C(=O)N(CCOC)Cc1cnn(C)c1 (stereo not drawn),-1.31%
21,CCS(=O)(=O)c1ccccc1C(=O)NCC1Cc2ccccc2O1 (stereo not drawn),-3.88%
22,Cc1cc(N(C)C)nc(C2(C)CCCNC2)n1 (stereo not drawn),18.9%
23,COC[C@H]1CC[C@@H]2[C@@H](CCN2Cc2ccccn2)O1,22.1%

row,SMILES,cytotoxicity at 70.5 h
1,COc1ccc(C(=O)NS(=O)(=O)c2cccc(C#N)c2)cc1,13.5%
2,O=C(O)c1cccc(CN2CCC(c3ccnc4ccnn34)CC2)c1,-8.88%
3,COCC1(C(=O)N[C@H]2CN(c3nnc(C)s3)C[C@@H]2C2CC2)CCC1,7.64%
4,Clc1ccccc1C1(c2ccnc(C3CC3)n2)CCNCC1,48.5%
5,Cc1ccc(C)c(NC(=O)N2C[C@H](N(C)C)C[C@H]2CO)c1,-6.76%
6,Cc1nc(C2CCCN2Cc2nnc(Cc3ccccc3)o2)no1 (stereo not drawn),2.42%
7,Cc1cncc(C(=O)NCC2COCc3c(C)nnn3C2)c1 (stereo not drawn),0.75%
8,Cc1cnccc1N1CCCN(C(=O)CCc2n[nH]c(C)c2C)CC1,18.7%
9,CC(C)c1nn(C)c(Cl)c1CNCCn1cccn1,8.25%
10,COCCNC(=O)[C@@H](C)[C@@H]1CCc2c(C)cc(OCC(=O)O)c(C)c2C1,-6%
11,N#Cc1cccc(C(=O)N2CCc3c(COCC4CC4)cncc3C2)c1,-17.6%
12,Fc1ccccc1Cc1noc(CN2CCC(C3CCCCC3)C2)n1 (stereo not drawn),34.7%
13,Cc1ccc(CNC(=O)Cc2c(C)nc3c(c2C)c(=O)[nH]n3C)cc1,4.93%
14,O=C(NCC(F)(F)F)C(c1cccnc1)N1CCCC1 (stereo not drawn),-5.02%
15,Cc1nn(C)c(Oc2ccc(Cl)cc2)c1CN1CC[C@H](CO)[C@@H](O)C1,-12.9%
16,COC(C(=O)N1CCCN(Cc2cscn2)CC1)c1ccccc1 (stereo not drawn),12.8%
17,NC(=O)C1CCN(Cc2cc3c(cc2Br)OCCO3)C1 (stereo not drawn),-1.46%
18,CNCCN1C(=O)CC[C@H]2CN(c3cnc4ccccc4n3)CC[C@H]21,-2.89%
19,Cc1ccc(-n2c(COC(C)C)n[nH]c2=O)cc1,-2.37%
20,O=C1CSC(c2ccncc2)c2c(n(C3CCOCC3)[nH]c2=O)N1 (stereo not drawn),36.4%
21,CN(CC1(O)CCCN(c2ccccn2)C1)C(=O)CC1CCOCC1 (stereo not drawn),-9.69%
22,CCN(Cc1nc2c(cnn2C)c(=O)[nH]1)c1cccc(Cl)c1,-15.8%
23,CC(=O)N1CCN([C@@H]2CN(C(=O)c3ccccc3C)C[C@H]2O)CC1,-3.99%

row,SMILES,cytotoxicity at 70.5 h
1,COCCN1C(=O)[C@]2(CC[C@@H]3CN(Cc4ccccc4F)C[C@@H]32)N=C1C,-9.72%
2,CC1(C)[C@H](Cc2cc(CO)on2)C[C@@H]1N(CC1CC1)CC1CC1,5.68%
3,Cc1cc2nc(SCC(=O)N3CCCC3)n(C(C)C)c(=O)c2[nH]1,14.9%
4,Brc1ccc(-c2nnc(CN(Cc3cccs3)CC3CCCO3)o2)s1 (stereo not drawn),-14.5%
5,CCc1cccc(NC(=O)CNc2ccccc2OCCC(=O)OC)c1,-0.0313%
6,CC(C)(C)c1ncc(S(C)(=O)=O)c(C2CCCNC2)n1 (stereo not drawn),-6.75%
7,CCC(=O)Nc1nnc2n(Cc3cccc(OC)c3)[nH]c(C)c1-2,-0.289%
8,COc1cc(NCC(O)CN2CCCCCC2)ncn1 (stereo not drawn),-7.58%
9,O=C(c1cnn(-c2ccccc2Cl)c1)N1CCN(CCO)CC1,-5.36%
10,Cn1ccnc1CCNS(=O)(=O)Cc1cccc(C#N)c1,-8.33%
11,CC(C)c1nnc2n1CCN(C(=O)c1ccc(OCC3CC3)nc1)C2,11%
12,O=C(COC(=O)Cc1cccs1)NCc1cccc(NC(=O)C2CC2)c1,-10.5%
13,CC(C)(C)C(NCC(=O)N1CCNC(=O)C1)c1ccccc1 (stereo not drawn),-107%
14,CC(O)CN1CCN(C(=O)c2ccc3c(c2)COC3)CC1 (stereo not drawn),22.6%
15,COc1cc(C(=O)N2CCCC2c2noc(C(C)C)n2)on1 (stereo not drawn),-2.66%
16,CC(C)c1nc(C2CCCN2Cc2cc(=O)n(C)c(=O)n2C)no1 (stereo not drawn),-4.31%
17,O=C(N1CCCC1)N1CCCC2(CCN(c3ccsc3)C2=O)C1 (stereo not drawn),-7.85%
18,COc1ccc(CN(C(=O)C2CCCS2)c2ccncc2)cc1 (stereo not drawn),-8.12%
19,CC(C)NC(=O)CC1COC2(CCN(Cc3cccs3)CC2)C1 (stereo not drawn),-20.6%
20,NC(=O)c1nc2c(s1)CCN(C(=O)Nc1ccccc1)CC2,9.18%
21,CCc1ccsc1C(=O)N(C)CCc1ccncc1,-1.38%
22,Cc1noc(C)c1-c1cncc(C2CCCN2Cc2ncccc2F)n1 (stereo not drawn),-6.52%
23,Cc1cnn(-c2ccc(S(=O)(=O)N(C)CC(F)F)cc2F)c1,-8.45%

row,SMILES,cytotoxicity at 70.5 h
1,CCn1nc(C(=O)N2CCCC2c2noc(C3CC3)n2)ccc1=O (stereo not drawn),12.1%
2,COc1nc2c(cc1C(=O)NCCc1nc(C)c(C(=O)O)s1)CCC2,10%
3,CCOc1cc(C(=O)N2CCCC(c3noc(C)n3)C2)ccn1 (stereo not drawn),-12.6%
4,COc1ccc2c(c1)C1(CCN(Cc3nccs3)CC1)N(C)CC2,5.77%
5,Cc1nc(C2CCCN2C(=O)CCCn2cccn2)no1 (stereo not drawn),3.27%
6,CC(C)=CCS(=O)(=O)Cc1nc(C(C)C)no1,-11.6%
7,O=C(Nc1c(F)cccc1F)N1CC(c2nc(C3CC3)no2)C1,-6.67%
8,CC(C(=O)Nc1ncccn1)N1CCCN(c2nccs2)CC1 (stereo not drawn),-13.8%
9,NCc1csc(CCc2ccccc2)n1,-8.04%
10,COc1ccc(C)cc1CC(=O)NC1(C#N)CCOCC1,29.1%
11,CCC1CCCCCN1C(=O)c1cc(C#N)c(SC)[nH]c1=O (stereo not drawn),24.7%
12,Cc1nc(CCCNC(=O)c2coc(CN3CCOCC3)c2)sc1C,-0.625%
13,O=c1[nH]c2c(-c3ccccn3)nsc2c(=O)n1CC1CCCO1 (stereo not drawn),-11.7%
14,CCc1noc(CN(CC)Cc2cc3ccc(C)cc3[nH]c2=O)n1,7.76%
15,CCn1ncc(S(=O)(=O)N[C@@H]2CC[C@@H](n3ccnc3)[C@@H]2O)c1C,-10.4%
16,Cc1cc(NC(=O)Cn2ccc(-c3ccc4c(c3)OCO4)n2)n(C)n1,-13.2%
17,COCCCNc1cc(C(=O)N2CCOCC2)ccc1C,-17.5%
18,Cc1cc(CN2C[C@@H]3COC[C@]3(COCc3csc(C)n3)C2)no1,2.9%
19,CNC(=O)[C@@H]1C[C@@H]2CCN(Cc3ccoc3)C[C@H]2O1,-6.85%
20,Cn1ccnc1SCCNC(=O)Cn1cnc2ccccc2c1=O,1.77%
21,COc1ccc([C@@H]2CN(C(=O)Cc3cccs3)C[C@H]2NC(C)=O)cc1,-4.36%
22,CN(Cc1cc(Br)c2c(c1)OCO2)Cc1cscn1,-14.1%
23,CN(C)c1cccc(CNC(=O)Nc2cc(C#N)ccc2Cl)n1,-4.82%

row,SMILES,cytotoxicity at 70.5 h
1,Cc1c(Cl)cccc1NC(=O)c1nc[nH]n1,19.3%
2,O=C(NC[C@H]1OC[C@@H](NC2COC2)[C@@H]1O)c1ccccc1,-6.48%
3,NC(=O)CN1C(=O)CO[C@H]2CN(Cc3ccc(C(F)(F)F)cc3)C[C@H]21,-1.74%
4,COCc1c(C(=O)O)nnn1Cc1cccc(C(F)(F)F)c1,-18.5%
5,c1ccc(-c2noc(CNC3CCc4ncnn4C3)n2)nc1 (stereo not drawn),-4.56%
6,CNC(=O)[C@@]12CCC3(CCN(C(=O)C(C)C)CC3)[C@@H]1CN(S(C)(=O)=O)C2,2.4%
7,CCC(C)N(Cc1ccc(C)cc1)Cc1c[nH]c(C)n1 (stereo not drawn),-5.02%
8,Cn1ccnc1CC1CCCN(C(=O)Cc2ccccc2)C1 (stereo not drawn),-1.68%
9,O=C(CN1C(=O)CCC1=O)N1CCC(S(=O)(=O)Cc2ccco2)CC1,-3.03%
10,CCn1c(CN(C)C)nnc1C1CCN(Cc2cccc(F)c2F)CC1,-1.68%
11,CN(C)CCN1CC(C(=O)NCc2cn3cccnc3n2)CC1=O (stereo not drawn),-5.17%
12,COCC1CN(Cc2ccncc2)Cc2nn(C)cc21 (stereo not drawn),30.7%
13,CCN(CC)C(=O)c1ccn(COc2ccccc2)n1,-7.93%
14,Cc1ncsc1C(=O)NC1CCN(CC(=O)N(C)C(C)(C)C#N)CC1,28.1%
15,CCC(C)C(=O)NCCCn1nc(C)cc1C (stereo not drawn),-13.2%
16,CCc1nsc(N2CCc3sccc3C2)n1,-2.5%
17,CC1CCN(CCNCc2cc(-c3ccccc3)cn3nnnc23)CC1,-3.94%
18,O=C1CCNc2ncc(-c3ccccc3Cl)cc2CN1C1CC1,0.196%
19,CCOCCNC(=O)c1cccnc1N1CCCC1c1ccccn1 (stereo not drawn),-8.32%
20,CCN(CC)CCNC(=O)c1ccc(-n2ccc3ccccc32)s1,1.6%
21,O=C1CCN(C(=O)NCc2cccc(Oc3ccccc3)c2)CCN1,-6.34%
